Measurements: US12617777B2, “GPR84 antagonists and uses thereof” (Liminal BioSciences Limited, priority 2021, dated 2026)

Target: T1, human GPR84 receptor (Homo sapiens, UniProt Q9NQS5)
T1 construct: host or cells: HEK293, transient transfection
Experiment: Gαi biosensor BRET assay in HEK293 cells (antagonism of ZQ-16)
Type: cell-based
Details: for inhibition at 10 µM: HEK293, single concentration 10 μM (designated F); for IC50: HEK293 cells, antagonism of 200 nmol/L ZQ-16; for inhibition at 2 µM: HEK293, single concentration 2 μM (designated A)
Summary of the method: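 Antagonist mode: test compound 5 min at 37° C, followed by ZQ-16 agonist (200 nmol/L, 5 min, room temperature), in HEK293 cells transfected with GPR84 plus Rluc8-tagged Gαi2, GFP10-Gγ2 and Gβ1. Readout as GFP10/Rluc8 emission ratio after 5 μmol/L coelenterazine 400A, net of Rluc8-only and vehicle signal.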

T1 sequence (Q9NQS5 whole entry): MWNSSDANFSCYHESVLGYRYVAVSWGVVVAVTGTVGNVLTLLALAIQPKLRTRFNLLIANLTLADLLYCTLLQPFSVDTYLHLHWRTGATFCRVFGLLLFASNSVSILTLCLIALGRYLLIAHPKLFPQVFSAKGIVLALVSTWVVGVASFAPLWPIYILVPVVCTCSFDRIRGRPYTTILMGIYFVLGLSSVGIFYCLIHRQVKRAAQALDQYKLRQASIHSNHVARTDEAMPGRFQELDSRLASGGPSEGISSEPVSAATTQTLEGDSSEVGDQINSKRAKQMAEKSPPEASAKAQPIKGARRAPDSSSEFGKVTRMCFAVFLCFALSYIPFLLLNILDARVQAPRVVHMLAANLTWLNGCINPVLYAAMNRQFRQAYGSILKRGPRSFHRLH

Compound	inhibition at 10 µM	IC50	inhibition at 2 µM	inhibition at 1 µM (HEK293, single concentration 1 μM (designated A°))
CC1(C)COC(Cn2cc(Oc3ccccc3)nn2)OC1 [Compound I-743, 1-((5,5-dimethyl-1,3-dioxan-2-yl)methyl)-4-phenoxy-1H-1,2,3-triazole]	≤ 25%	–	–	–
CC1(NCc2ccccn2)CN(c2ccc(-c3cn(CC4CCCCO4)nn3)c(CC(F)(F)F)c2)C1 (stereo not drawn) [Compound I-744]	> 75%	300 to 1000 nM	–	–
CC1(C)COC(Cn2cc(-c3ccc(N4CC(C)(NCc5ccccn5)C4)cc3CC(F)(F)F)nn2)OC1 [Compound I-745]	–	300 to 1000 nM	> 75%	–
FC(F)(F)Cc1cc(N2CCN(Cc3ccccn3)CC2)ccc1-c1cn(C[C@H]2CCCCO2)nn1 [Compound I-746]	–	≤ 300 nM	> 75%	–
CC1(C)COC(Cn2cc(-c3ccc(N4CCN(Cc5ccccn5)CC4)cc3CC(F)(F)F)nn2)OC1 [Compound I-747]	–	≤ 300 nM	> 75%	–
CN(C)c1cc(N2CC(C)(CO)C2)ccc1-c1cn(CC2OCC3(CC3)CO2)nn1 [Compound I-748]	–	≤ 300 nM	> 75%	–
CC1(C)CN(c2ccc(-c3cn(C[C@H]4CCCCO4)nn3)c(OC3CC3)c2)C1 [Compound I-749]	50 to 75%	≤ 300 nM	> 75%	–
COC(Cc1cc(C#CC2CC2)ccc1C)c1cn(CC2OCC(C)(C)CO2)nn1 (stereo not drawn) [Compound I-753]	> 75%	–	–	–
COCC1CN(c2ccc(-c3cn(CC4OCC(C)(C)CO4)nn3)c(N(C)C)c2)C1 [Compound I-755]	> 75%	–	–	–
COCC#Cc1cnc(-c2cn(CC3OCC(C)(C)CO3)nn2)c(OC2CC2)c1 [Compound I-757]	–	≤ 300 nM	> 75%	–
CC1(C)COC(Cn2cc(-c3ncc(C#CCOC4CC4)cc3OC3CC3)nn2)OC1 [Compound I-758]	–	≤ 300 nM	> 75%	–
Cc1ccc(C#CC2CC2)cc1Nc1cnn(CC2OCC(C)(C)CO2)n1 [Compound I-759, N-(5-(cyclopropylethynyl)-2-methylphenyl)-2-((5,5-dimethyl-1,3-dioxan-2-yl)methyl)-2H-1,2,3-triazol-4-amine]	≤ 25%	–	–	–
Cc1ccc(C#CC2CC2)cc1N(C)c1cn(CC2OCC(C)(C)CO2)nn1 [Compound I-761, N-(5-(cyclopropylethynyl)-2-methylphenyl)-1-((5,5-dimethyl-1,3-dioxan-2-yl)methyl)-N-methyl-1H-1,2,3-triazol-4-amine]	–	300 to 1000 nM	–	–
CC1(C)CN(CC#Cc2cnc(-c3cn(CC4OCC5(CCC5)O4)nn3)c(OC3CC3)c2)C1 (stereo not drawn) [Compound I-764]	–	300 to 1000 nM	–	–
CCc1cc(C#CCOC)ccc1-c1cn(CC2OCC(C)(C)CO2)nn1 [Compound I-770]	–	≤ 300 nM	–	–
CC1(C)COC(Cn2cc(-c3ncc(C#CCO)cc3OC3CC3)nn2)OC1 [Compound I-771]	–	≤ 300 nM	–	–
CC1(C)COC(Cn2cc(-c3ncc(C#CCNCc4ccccn4)cc3OC3CC3)nn2)OC1 [Compound I-772]	–	≤ 300 nM	–	–
CCc1cc(C#CCOC2CC2)ccc1-c1cn(CC2OCC(C)(C)CO2)nn1 [Compound I-780]	> 75%	300 to 1000 nM	–	–

Compound	inhibition at 10 µM	IC50	inhibition at 2 µM	inhibition at 1 µM (HEK293, single concentration 1 μM (designated A°))
Cc1ccc(C#CC2CC2)cc1S(=O)(=O)c1cn(CC2OCC(C)(C)CO2)nn1 [Compound I-783, 4-((5-(cyclopropylethynyl)-2-methylphenyl)sulfonyl)-1-((5,5-dimethyl-1,3-dioxan-2-yl)methyl)-1H-1,2,3-triazole]	≤ 25%	–	–	–
CN(C)c1cc(N2CC(C)(CO)C2)c(F)cc1-c1cn(CC2OCC3(CCC3)O2)nn1 (stereo not drawn) [Compound I-786]	> 75%	300 to 1000 nM	–	–
CC1(C)COC(Cn2cc(-c3ccc(C#CCN4CC(C)(C)C4)cc3OC3CC3)nn2)OC1 [Compound I-788]	> 75%	≤ 300 nM	–	–
Cc1cccc(C#Cc2cn(CC3OCC(C)(C)CO3)nn2)c1 [Compound I-790, 1-((5,5-dimethyl-1,3-dioxan-2-yl)methyl)-4-(m-tolylethynyl)-1H-1,2,3-triazole]	≤ 25%	–	–	–
Cc1ccccc1C#Cc1cn(CC2OCC(C)(C)CO2)nn1 [Compound I-791]	–	–	> 75%	–
CC1(C)CN(CC#Cc2cnc(-c3cn(CC4OCC5(CC5)CO4)nn3)c(OC3CC3)c2)C1 [Compound I-794]	–	≤ 300 nM	> 75%	–
CC1(CO)CN(c2ccc(-c3cn(CC4OCC5(CCC5)O4)nn3)c(CC(F)(F)F)c2)C1 (stereo not drawn) [Compound I-796]	–	≤ 300 nM	–	–
CC(C)Oc1cc(C#CC2CC2)cnc1-c1cn(CC2OCC3(CCC3)O2)nn1 (stereo not drawn) [Compound I-797]	> 75%	≤ 300 nM	–	–
CC1(C)COC(Cn2cc(-c3ncc(C#CCN4CC(C)(CO)C4)cc3OC3CC3)nn2)OC1 [Compound I-799]	> 75%	≤ 300 nM	–	–
CCN(CC)c1cc(N2CC(C)(CO)C2)ccc1-c1cn(CC2OCC3(CC3)CO2)nn1 [Compound I-800]	50 to 75%	300 to 1000 nM	–	–
CCN(CC)c1cc(N2CC(C)(CO)C2)c(F)cc1-c1cn(CC2OCC3(CC3)CO2)nn1 [Compound I-801]	–	≤ 300 nM	> 75%	–
CN(c1cccc(C#N)c1)c1cn(CC2OCC(C)(C)CO2)nn1 [Compound I-802]	> 75%	–	–	–
Cc1cc(N2CC(C)(CO)C2)c(F)cc1-c1cn(C[C@H]2CCCCO2)nn1 [Compound I-804]	–	300 to 1000 nM	–	25 to 50%
Cc1cc(N2CC(C)(CO)C2)c(F)cc1-c1cn(C[C@@H]2CCCCO2)nn1 [Compound I-805]	–	–	> 75%	–
CC1(CO)CN(c2cnc(-c3cn(CC4OCC5(CCC5)O4)nn3)c(Cl)c2)C1 (stereo not drawn) [Compound I-807]	> 75%	–	–	–
OCC#Cc1ccc(-c2cn(CC3OCC4(CCC4)O3)nn2)c(CC(F)(F)F)c1 (stereo not drawn) [Compound I-808]	–	300 to 1000 nM	> 75%	–
CC1(CO)CN(c2ccc(-c3cn(CC4OCC5(CCC5)O4)nn3)c(OC3CC3)c2)C1 (stereo not drawn) [Compound I-810]	> 75%	300 to 1000 nM	–	–

Second part, the compound after the results:

inhibition at 10 µM	IC50	inhibition at 2 µM	inhibition at 1 µM (HEK293, single concentration 1 μM (designated A°))	Compound
> 75%	–	–	–	C=C(c1cn(C[C@H]2CCCCO2)nn1)c1cccc(C#CC2CC2)c1C [Compound I-742]
> 75%	≤ 300 nM	–	–	CC1(C)COC(Cn2cc(-c3ncc(C#CC4CC4)cc3CC(F)(F)F)nn2)OC1 [Compound I-750]
25 to 50%	–	–	–	Cc1cc(N2CCN(Cc3ccccn3)CC2=O)ccc1-c1cn(CC2OCC(C)(C)CO2)nn1 [Compound I-751]
25 to 50%	–	–	–	Cc1cc(N2CCN(Cc3ccccn3)C(=O)C2)ccc1-c1cn(CC2OCC(C)(C)CO2)nn1 [Compound I-752]
> 75%	300 to 1000 nM	–	–	CC(C)OCC1(C)CN(c2ccc(-c3cn(CC4OCC(C)(C)CO4)nn3)c(N(C)C)c2)C1 [Compound I-754]
> 75%	300 to 1000 nM	–	–	CN(C)c1cc(N2CC3(COC3)C2)ccc1-c1cn(CC2OCC(C)(C)CO2)nn1 [Compound I-756]
–	≤ 300 nM	–	–	CC1(C)COC(Cn2cc(-c3ncc(C#CCN4CC(C)(C)C4)cc3CC(F)(F)F)nn2)OC1 [Compound I-762]
–	1000 to 3000 nM	–	–	CC1(C)COC(Cn2cc(-c3ncc(N4CC(C)(CO)C4)cc3Cl)nn2)OC1 [Compound I-765]
–	300 to 1000 nM	–	–	CC1(C)COC(Cn2cc(-c3ccc(N4CC(C)(CO)C4)cc3OC3CC3)nn2)OC1 [Compound I-767]
–	300 to 1000 nM	–	–	Cc1ccc(C#CC2CC2)cc1Oc1cn(CC2OCC(C)(C)CO2)nn1 [Compound I-773]
–	≤ 300 nM	–	–	C[C@@H]1Cc2oc(C(=O)NCc3cnc(C4CC4)cn3)c(C(F)(F)F)c2-c2nn(C[C@H]3COCCO3)cc21 [Compound I-775]
–	1000 to 3000 nM	–	–	CC1(C)COC(Cn2cc(-c3ncc(C#CCN4CC(C)(C)C4)cc3Cl)nn2)OC1 [Compound I-777]
> 75%	–	–	–	Cc1ccc(C#CC2CC2)cc1Sc1cn(CC2OCC(C)(C)CO2)nn1 [Compound I-781, 4-((5-(cyclopropylethynyl)-2-methylphenyl)thio)-1-((5,5-dimethyl-1,3-dioxan-2-yl)methyl)-1H-1,2,3-triazole]
–	≤ 300 nM	–	–	CN(C)c1cc(N2CC(C)(CO)C2)c(F)cc1-c1cn(CC2OCC3(CC3)CO2)nn1 [Compound I-784]
–	≤ 300 nM	> 75%	–	C(#CC1CC1)c1cnc(-c2cn(CC3OCC4(CC4)CO3)nn2)c(OC2CC2)c1 [Compound I-785]
≤ 25%	300 to 1000 nM	–	–	C[C@@H]1Cc2oc(C(=O)NC[C@@H]3COCCO3)c(C(F)(F)F)c2-c2nn(CC3CCN(C(=O)C4CC4)CC3)cc21 [Compound I-787]
50 to 75%	300 to 1000 nM	–	–	CCc1cc(C#CCN2CC(C)(CO)C2)cnc1-c1cn(CC2OCC(C)(C)CO2)nn1 [Compound I-789]
–	300 to 1000 nM	> 75%	–	CC(=O)N(c1cn(CC2OCC(C)(C)CO2)nn1)c1cc(C#CC2CC2)ccc1C [Compound I-792, N-(5-(cyclopropylethynyl)-2-methylphenyl)-N-(1-((5,5-dimethyl-1,3-dioxan-2-yl)methyl)-1H-1,2,3-triazol-4-yl)acetamide]
–	–	> 75%	–	CN(c1ccc(C#N)cc1)c1cn(CC2OCC(C)(C)CO2)nn1 [Compound I-793, 4-((1-((5,5-dimethyl-1,3-dioxan-2-yl)methyl)-1H-1,2,3-triazol-4-yl)(methyl)amino)benzonitrile]
25 to 50%	≤ 300 nM	–	–	Cc1cc(N2CCN(Cc3ccccn3)CC2)ccc1-c1cn(CC2OCC3(CC3)CO2)cn1 [Compound I-795]
> 75%	–	–	–	C(#CC1CC1)c1ccc(-c2cn(CC3OCC4(CCC4)O3)nn2)c(OC2CC2)c1 (stereo not drawn) [Compound I-798]
> 75%	–	–	–	CN(c1cn(CC2OCC(C)(C)CO2)nn1)c1cc(C#N)ccc1Cl [Compound I-803]
–	–	> 75%	–	Clc1cc(C#CC2CC2)cnc1-c1cn(CC2OCC3(CCC3)O2)nn1 (stereo not drawn) [Compound I-806]
–	–	> 75%	–	CC(C)Oc1cc(N2CC(C)(CO)C2)cnc1-c1cn(CC2OCC3(CCC3)O2)nn1 (stereo not drawn) [Compound I-809]
